Measured values reported in patent US8283473B2, “Platinum complex compound and utilization of the same” (Yakult Honsha Co., Ltd, priority 2008, dated 2012).
Like-named read-outs stand apart in the source and are kept apart here.

Tested on: H460 non-small cell lung cancer cells
Assay: In vitro cytotoxicity (inhibitory activity on cancer cell proliferation), MTT formazan absorbance assay
Assay type: cell-based
Conditions: 24 hours incubation at 37° C., absorbance at 550 nm, read-out: IC50 value of platinum complex compounds for H460 non-small cell lung cancer cells
Experimental: <Investigation of the In Vitro Cytotoxicity (Inhibitory Activity on Cancer Cell Proliferation) for H460 Non-Small Cell Lung Cancer Cells>
On the day prior to the day of agent addition, H460 non-small cell lung cancer cells were plated onto 24-well flatbottom microplates at 12,000 to 20,000 cells/well. An aqueous solution was prepared for each sample (refer to the sample numbers in Table 1) by dissolving the sample in Q-H2O water to a concentration of 100 μM. These aqueous solutions were diluted to provide solutions with various concentrations, and 1 mL of the particular dilution was introduced into each well. After incubation of the microplate for 24 hours at 37° C., […] a 2,5-diphenyl-3-(4,5-dimethylthiazol-2-yl)tetrazolium bromide (MIT) solution (5 mg/mL) was added to each well and incubation was continued for an additional 4 hours at 37° C. 200 μL dimethyl sulfoxide (DMSO) was added to each well in order to dissolve the formazan produced and precipitated as a result of reduction of the MIT. The absorbance at 550 nm of each well was measured using a microplate reader.
The absorbance of each well was measured three times and each experiment was repeated at least three times. The IC50 value was calculated as the concentration that provided a 50% formazan production with reference to the control (no agent addition).

N.N.[Cl][Pt][Cl] [sample 3, cis-diamminedichloridoplatinum(II)]
IC50 (Table 1, then 4 hours with tetrazolium dye): 23 µM | IC50 (Table 2, same procedure): 23 µM

O=[N+]([O-])O.O=[N+]([O-])[O-].[NH2][Pt]1([NH2])[O][Pt]([NH2])([NH2])[n+]2ncc[n]21 [sample 9, [{cis-Pt(NH3)2}2(μ-OH)(μ-1,2,3-triazolato-N1,N2)](NO3)2]
IC50 (Table 2, same procedure): 62 µM

[{cis-Pt(NH3)2}2(μ-OH)(μ-5-methyltetrazolato-N2,N3)](NO3)2 [sample 6]
IC50 (Table 2, same procedure): 20 µM

[{cis-Pt(NH3)2}2(μ-OH)(μ-pyrazolato)](NO3)2 [sample 8]
IC50 (Table 2, same procedure): > 100 µM

[{cis-Pt(NH3)2}2(μ-OH)(μ-tetrazolato-5-ethylacetate-N2,N3)](NO3)2 [sample 7]
IC50 (Table 2, same procedure): 22 µM

[{cis-Pt(NH3)2}2(μ-OH)(μ-tetrazolato-N1,N2)](ClO4)2 [sample 4]
IC50 (Table 2, same procedure): 21 µM

[{cis-Pt(NH3)2}2(μ-OH)(μ-tetrazolato-N2,N3)](ClO4)2 [sample 5]
IC50 (Table 2, same procedure): 8.3 µM
